Measurements published in patent publication US20170334899A1, “AMINO-SUBSTITUTED ISOTHIAZOLES” (Bayer Pharma Aktiengesellschaft, priority 2014, published 2017).

How the values were obtained:
[1] = tested on: HeLa; experiment: Proliferation assay (crystal violet), HeLa; assay type: cell-based; details: Homo sapiens, HeLa, 96 h, HeLa cells; 4 days incubation; crystal violet staining; read-out: IC50 inhibition of proliferation, HeLa
Outline: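 Crystal violet proliferation readout, 4-day compound incubation, 0.001–10 μM, final DMSO 0.5%. Zero-point plate stained at time of dosing set as 0%, untreated control as 100%; IC50 via 4-parameter fit.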

[2] = molecular target: T1, catalytic domain of human Bub1 (amino acids 704-1085) (Homo sapiens, UniProt O43683); experiment: Bub1 kinase assay (TR-FRET); assay type: biochemical; details: 10 μM ATP, avg, read-out: Bub1 avg (IC50 [mol/l])
T1 construct: catalytic domain of human Bub1 (amino acids 704-1085); His6 (N); made in house; host or cells: insect cells (Hi5)
Excerpt: Bub1-inhibitory activity of compounds of the present invention was quantified employing the Bub1 TR-FRET assay as described in the following paragraphs.
N-terminally His6-tagged recombinant catalytic domain of human Bub1 (amino acids 704-1085), expressed in insect cells (Hi5) and purified by Ni-NTA affinity chromatography and subsequent size exclusion chromatography, was used as enzyme. As substrate for the kinase reaction the biotinylated peptide biotin-Ahx-VLLPKKSFAEPG (C-terminus in amid form) was used which can be purchased e.g. form the company Biosyntan (Berlin, Germany).
For the assay 50 nl of a 100fold concentrated solution of the test compound in DMSO was pipetted into a black low volume 384well microtiter plate (Greiner Bio-One, Frickenhausen, Germany), 2 μl of a solution of Bub1 in aqueous assay buffer [50 mM Tris/HCl pH 7.5, 10 mM magnesium chloride (MgCl2), 200 mM potassium chloride (KCl), 1.0 mM dithiothreitol (DTT), 0.1 mM sodium ortho-vanadate, 1% (v/v) glycerol, 0.01% (w/v) bovine serum albumine (BSA), 0.005% (v/v) Trition X-100 (Sigma), 1× Complete EDTA-free protease inhibitor mixture (Roche)] were added and the mixture was incubated for 15 min at 22° C. to allow pre-binding of the test compounds to the enzyme before the start of the kinase reaction. Then the kinase reaction was started by the addition of 3 μl of a solution of adenosine-tri-phosphate (ATP, 16.7 μM=>final conc. in the 5 μl assay volume is 10 μM) and substrate (1.67 μM=>final conc. in the 5 μl assay volume is 1 μM) in assay buffer and the resulting mixture was incubated for a reaction time of 60 min at 22° C. The concentration of Bub1 was adjusted depending of the activity of the enzyme lot and was chosen appropriate to have the assay in the linear range, typical concentrations were in the range of 200 ng/ml. The reaction was stopped by the addition of 5 μl of a solution of TR-FRET detection reagents (0.2 μM streptavidine-XL665 [Cisbio Bioassays, Codolet, France] and 1 nM anti-phosho-Serine antibody [Merck Millipore, cat. #35-001] and 0.4 nM LANCE EU-W1024 labeled anti-mouse IgG antibody [Perkin-Elmer, product no. AD0077, as an alternative a Terbium-cryptate-labeled anti-mouse IgG antibody from Cisbio Bioassays can be used]) in an aqueous EDTA-solution (50 mM EDTA, 0.2% (w/v) bovine serum albumin in 100 mM HEPES pH 7.5).
The resulting mixture was incubated 1 h at 22° C. to allow the formation of complex between the phosphorylated biotinylated peptide and the detection reagents. Subsequently the amount of phosphorylated substrate was evaluated by measurement of the resonance energy transfer from the Eu-chelate to the streptavidine-XL. Therefore, the fluorescence emissions at 620 nm and 665 nm after excitation at 350 nm was measured in a TR-FRET reader, e.g. a Rubystar or Pherastar (both from BMG Labtechnologies, Offenburg, Germany) or a Viewlux (Perkin-Elmer). The ratio of the emissions at 665 nm and at […] was taken as the measure for the amount of phosphorylated substrate. The data were normalised (enzyme reaction without inhibitor=0% inhibition, all other assay components but no enzyme=100% inhibition).

T1 sequence (O43683 704-1085): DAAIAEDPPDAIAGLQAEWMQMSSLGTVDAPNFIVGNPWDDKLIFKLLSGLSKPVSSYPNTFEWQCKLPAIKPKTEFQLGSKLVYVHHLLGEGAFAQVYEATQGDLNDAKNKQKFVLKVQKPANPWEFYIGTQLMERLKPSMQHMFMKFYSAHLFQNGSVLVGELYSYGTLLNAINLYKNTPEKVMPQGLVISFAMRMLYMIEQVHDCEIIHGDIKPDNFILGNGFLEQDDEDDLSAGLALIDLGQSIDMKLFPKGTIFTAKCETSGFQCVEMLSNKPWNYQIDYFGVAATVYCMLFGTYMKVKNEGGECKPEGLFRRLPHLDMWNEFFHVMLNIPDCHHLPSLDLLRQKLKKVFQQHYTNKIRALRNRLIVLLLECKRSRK

IC50 [1] [µM]	IC50 [2] [µM]	SMILES
3.2	> 20	Cc1nsc(Nc2cnc(C(F)(F)F)cn2)c1C(=O)Nc1ccc(C(=O)NC2CCN(CC(F)(F)F)CC2)cc1 [Example 165, 3-methyl-N-(4-{[1-(2,2,2-trifluoroethyl)piperidin-4-yl]carbamoyl}phenyl)-5-{[5-(trifluoromethyl)pyrazin-2-yl]amino}-1,2-thiazole-4-carboxamide]
8.8	≥ 20	CC(=O)N(C)CCOc1ccc(NC(=O)c2c(C)nsc2Nc2nc3c(C(F)(F)F)cccc3s2)cn1 [Example 112, N-(6-{2-[Acetyl(methyl)amino]-ethoxy}pyridin-3-yl)-3-methyl-5-{[4-(trifluoromethyl)-1,3-benzothiazol-2-yl]amino}-1,2-thiazole-4-carboxamide]
> 10	> 20	CC(=O)Nc1cc(NC(=O)c2c(C)nsc2Nc2ccc(C#N)cn2)ccc1F [Example 152, N-(3-acetamido-4-fluorophenyl)-5-[(5-cyanopyridin-2-yl)amino]-3-methyl-1,2-thiazole-4-carboxamide]
0.22	≥ 20	Cc1nsc(Nc2cnc(C(F)(F)F)cn2)c1C(=O)Nc1ccc(OC2CCN(CC(F)(F)F)CC2)nc1 [Example 9, -Methyl-N-(6-{[1-(2,2,2-trifluoroethyl)piperidin-4-yl]oxy}pyridin-3-yl)-5-{[5-(trifluoromethyl)pyrazin-2-yl]amino}-1,2-thiazole-4-carboxamide]
3.2	> 20	Cc1nsc(Nc2cnc3ccccc3n2)c1C(=O)Nc1ccc(C(=O)NC2CN(C(=O)OC(C)(C)C)CC(F)(F)C2)cc1 (stereo not drawn) [Example 158, tert-butyl 3,3-difluoro-5-{[4-({[3-methyl-5-(quinoxalin-2-ylamino)-1,2-thiazol-4-yl]carbonyl}amino)benzoyl]amino} piperidine-1-carboxylate]
0.18	> 20	Cc1nsc(Nc2cnc(C(F)(F)F)cn2)c1C(=O)Nc1ccc(O[C@@H]2CCN(CC(F)F)C[C@@H]2F)nc1 [Example 137, N-(6-{[(3S,4R)-1-(2,2-difluoroethyl)-3-fluoropiperidin-4-yl]oxy}pyridin-3-yl)-3-methyl-5-{[5-(trifluoromethyl)pyrazin-2-yl]amino}-1,2-thiazole-4-carboxamide]
0.88	≥ 20	Cc1nsc(Nc2cnc3ccccc3n2)c1C(=O)Nc1ccc(Oc2cccc(C(F)(F)F)c2)nc1 [Example 117, 3-Methyl-5-(quinoxalin-2-ylamino)-N-{6-[3-(trifluoromethyl)phenoxy]pyridin-3-yl}-1,2-thiazole-4-carboxamide]
0.28	≥ 20	Cc1nsc(Nc2cnc(C(F)(F)F)cn2)c1C(=O)Nc1ccc(OC2CCN(CC(F)F)CC2)nc1 [Example 8, N-(6-{[1-(2,2-Difluoroethyl)piperidin-4-yl]oxy}pyridin-3-yl)-3-methyl-5-{[5-(trifluoromethyl)pyrazin-2-yl]amino}-1,2-thiazole-4-carboxamide]
3	≥ 20	CCNS(=O)(=O)c1ccc(NC(=O)c2c(C)nsc2Nc2cnc3ccccc3n2)cc1 [Example 116, N-[4-(Ethylsulfamoyl)phenyl]-3-methyl-5-(quinoxalin-2-ylamino)-1,2-thiazole-4-carboxamide]
10	≥ 20	Cc1nsc(Nc2cnc(C(F)(F)F)cn2)c1C(=O)Nc1ccc(OC2CCNCC2)nc1 [Example 6, 3-Methyl-N-[6-(piperidin-4-yloxy)pyridin-3-yl]-5-{[5-(trifluoromethyl)pyrazin-2-yl]amino}-1,2-thiazole-4-carboxamide]
0.32	> 20	CCCN1CC[C@H](Oc2ccc(NC(=O)c3c(C)nsc3Nc3cnc(C(F)(F)F)cn3)cn2)[C@H](F)C1 [Example 147, N-(6-{[(3R,4S)-3-fluoro-1-propylpiperidin-4-yl]oxy}pyridin-3-yl)-3-methyl-5-{[5-(trifluoromethyl)pyrazin-2-yl]amino}-1,2-thiazole-4-carboxamide]
0.23	> 20	Cc1nsc(Nc2cnc(C(F)(F)F)cn2)c1C(=O)Nc1ccc(OC[C@@H]2CCN(CC(F)(F)F)C2)nc1 [Example 128, 3-Methyl-N-(6-{[(3R)-1-(2,2,2-trifluoroethyl)pyrrolidin-3-yl]methoxy}pyridin-3-yl)-5-{[5-(trifluoromethyl)pyrazin-2-yl]amino}-1,2-thiazole-4-carboxamide]
1.1	≥ 20	Cc1nsc(Nc2cnc(C(F)(F)F)cn2)c1C(=O)Nc1ccc(C(=O)OC(C)(C)C)cc1 [Example 96, tert-Butyl 4-{[(3-methyl-5-{[5-(trifluoromethyl)pyrazin-2-yl]amino}-1,2-thiazol-4-yl)carbonyl]amino}benzoate]
6.2	> 20	Cc1nsc(Nc2ccc(C#N)cn2)c1C(=O)Nc1ccc(NC2CCCN(C(=O)OC(C)(C)C)C2)nc1 (stereo not drawn) [Example 171, tert-butyt 3-({5-[({5-[(5-cyanopyridin-2-yl)amino]-3-methyl-1,2-thiazol-4-yl}carbonyl)amino]pyridin-2-yl}amino)piperidine-1-carboxylate]
5.3	≥ 20	Cc1nsc(Nc2cc(C#N)ccn2)c1C(=O)Nc1ccc(Oc2cccnc2)nc1 [Example 119, 5-[(4-Cyanopyridin-2-yl)amino]-3-methyl-N-[6-(pyridin-3-yloxy)pyridin-3-yl]-1,2-thiazole-4-carboxamide]
2.8	14	Cc1nsc(Nc2cnc(C(F)(F)F)cn2)c1C(=O)Nc1ccc(C(=O)NCCN2CCCC(F)(F)C2)cc1 [Example 153, N-(4-{[2-(3,3-difluoropiperidin-1-yl)ethyl]carbamoyl}phenyl)-3-methyl-5-{[5-(trifluoromethyl)pyrazin-2-yl]amino}-1,2-thiazole-4-carboxamide]
> 10	> 20	Cc1nsc(Nc2cnc3ccccc3n2)c1C(=O)Nc1ccc(N2CCOCC2)nc1 [Example 169, 3-methyl-N-[6-(morpholin-4-yl)pyridin-3-yl]-5-(quinoxalin-2-ylamino)-1,2-thiazole-4-carboxamide]
0.83	> 20	Cc1nsc(Nc2cncc(C(F)(F)F)n2)c1C(=O)Nc1ccc(OCC2CCCN(C(=O)OC(C)(C)C)C2)nc1 (stereo not drawn) [Example 166, tert-butyl 3-{[(5-{[(3-methyl-5-{[6-(trifluoromethyl)pyrazin-2-yl]amino}-1,2-thiazol-4-yl)carbonyl]amino}pyridin-2-yl)oxy]methyl}piperidine-1-carboxylate]
6.4	≥ 20	Cc1nsc(Nc2cnc3ccccc3n2)c1C(=O)Nc1cccc(C(=O)N[C@H](C(=O)O)[C@@H](C)OC(C)(C)C)c1 [Example 104, O-tert-Butyl-N-[3-({[3-methyl-5-(quinoxalin-2-ylamino)-1,2-thiazol-4-yl]-carbonyl}amino)benzoyl]threonine]
4.3	> 20	Cc1nsc(Nc2cncc(C(F)(F)F)n2)c1C(=O)Nc1ccc(C(=O)NC2CCN(CC(F)(F)F)CC2)cc1 [Example 167, 3-methyl-N-(4-{[1-(2,2,2-trifluoroethyl)piperidin-4-yl]carbamoyl}phenyl)-5-{[6-(trifluoromethyl)pyrazin-2-yl]amino}-1,2-thiazole-4-carboxamide]
10	9	COC(=O)CNC(=O)c1cccc(NC(=O)c2c(C)nsc2Nc2cnc3ccccc3n2)c1 [Example 100, Methyl N-[3-({[3-methyl-5-(quinoxalin-2-ylamino)-1,2-thiazol-4-yl]carbonyl}amino)-benzoyl]glycinate]
